Assay results: patent US9233977B2, “Leucine-rich repeat kinase enzyme activity” (Merck Sharp & Dohme Corp., priority 2010, dated 2016)

Target: T1, LRRK2 G2019S mutant kinase (Homo sapiens, UniProt Q5S007, G2019S)
T1 construct: GST; purchased Invitrogen PV4882
Experiment: LRRK2 G2019S LanthaScreen TR-FRET kinase assay
Type: biochemical
Settings: LRRK2 G2019S GST-tagged protein, 75 nM Fluorescein-ERM (LRRKtide), 100 μM ATP, 1 hour at room temperature; read-out: IC50 (potency)
Protocol: The final solvent concentration in the assay was 1% DMSO. […] Generation of raw data and workup of data to derive the IC50 (potency) and maximal inhibition at concentrations tested were performed using Merck's Assay Data Analyzer (ADA) software.
The IC50 (potency) was evaluated for the example compounds presented above.

T1 sequence (Q5S007 whole entry G2019S): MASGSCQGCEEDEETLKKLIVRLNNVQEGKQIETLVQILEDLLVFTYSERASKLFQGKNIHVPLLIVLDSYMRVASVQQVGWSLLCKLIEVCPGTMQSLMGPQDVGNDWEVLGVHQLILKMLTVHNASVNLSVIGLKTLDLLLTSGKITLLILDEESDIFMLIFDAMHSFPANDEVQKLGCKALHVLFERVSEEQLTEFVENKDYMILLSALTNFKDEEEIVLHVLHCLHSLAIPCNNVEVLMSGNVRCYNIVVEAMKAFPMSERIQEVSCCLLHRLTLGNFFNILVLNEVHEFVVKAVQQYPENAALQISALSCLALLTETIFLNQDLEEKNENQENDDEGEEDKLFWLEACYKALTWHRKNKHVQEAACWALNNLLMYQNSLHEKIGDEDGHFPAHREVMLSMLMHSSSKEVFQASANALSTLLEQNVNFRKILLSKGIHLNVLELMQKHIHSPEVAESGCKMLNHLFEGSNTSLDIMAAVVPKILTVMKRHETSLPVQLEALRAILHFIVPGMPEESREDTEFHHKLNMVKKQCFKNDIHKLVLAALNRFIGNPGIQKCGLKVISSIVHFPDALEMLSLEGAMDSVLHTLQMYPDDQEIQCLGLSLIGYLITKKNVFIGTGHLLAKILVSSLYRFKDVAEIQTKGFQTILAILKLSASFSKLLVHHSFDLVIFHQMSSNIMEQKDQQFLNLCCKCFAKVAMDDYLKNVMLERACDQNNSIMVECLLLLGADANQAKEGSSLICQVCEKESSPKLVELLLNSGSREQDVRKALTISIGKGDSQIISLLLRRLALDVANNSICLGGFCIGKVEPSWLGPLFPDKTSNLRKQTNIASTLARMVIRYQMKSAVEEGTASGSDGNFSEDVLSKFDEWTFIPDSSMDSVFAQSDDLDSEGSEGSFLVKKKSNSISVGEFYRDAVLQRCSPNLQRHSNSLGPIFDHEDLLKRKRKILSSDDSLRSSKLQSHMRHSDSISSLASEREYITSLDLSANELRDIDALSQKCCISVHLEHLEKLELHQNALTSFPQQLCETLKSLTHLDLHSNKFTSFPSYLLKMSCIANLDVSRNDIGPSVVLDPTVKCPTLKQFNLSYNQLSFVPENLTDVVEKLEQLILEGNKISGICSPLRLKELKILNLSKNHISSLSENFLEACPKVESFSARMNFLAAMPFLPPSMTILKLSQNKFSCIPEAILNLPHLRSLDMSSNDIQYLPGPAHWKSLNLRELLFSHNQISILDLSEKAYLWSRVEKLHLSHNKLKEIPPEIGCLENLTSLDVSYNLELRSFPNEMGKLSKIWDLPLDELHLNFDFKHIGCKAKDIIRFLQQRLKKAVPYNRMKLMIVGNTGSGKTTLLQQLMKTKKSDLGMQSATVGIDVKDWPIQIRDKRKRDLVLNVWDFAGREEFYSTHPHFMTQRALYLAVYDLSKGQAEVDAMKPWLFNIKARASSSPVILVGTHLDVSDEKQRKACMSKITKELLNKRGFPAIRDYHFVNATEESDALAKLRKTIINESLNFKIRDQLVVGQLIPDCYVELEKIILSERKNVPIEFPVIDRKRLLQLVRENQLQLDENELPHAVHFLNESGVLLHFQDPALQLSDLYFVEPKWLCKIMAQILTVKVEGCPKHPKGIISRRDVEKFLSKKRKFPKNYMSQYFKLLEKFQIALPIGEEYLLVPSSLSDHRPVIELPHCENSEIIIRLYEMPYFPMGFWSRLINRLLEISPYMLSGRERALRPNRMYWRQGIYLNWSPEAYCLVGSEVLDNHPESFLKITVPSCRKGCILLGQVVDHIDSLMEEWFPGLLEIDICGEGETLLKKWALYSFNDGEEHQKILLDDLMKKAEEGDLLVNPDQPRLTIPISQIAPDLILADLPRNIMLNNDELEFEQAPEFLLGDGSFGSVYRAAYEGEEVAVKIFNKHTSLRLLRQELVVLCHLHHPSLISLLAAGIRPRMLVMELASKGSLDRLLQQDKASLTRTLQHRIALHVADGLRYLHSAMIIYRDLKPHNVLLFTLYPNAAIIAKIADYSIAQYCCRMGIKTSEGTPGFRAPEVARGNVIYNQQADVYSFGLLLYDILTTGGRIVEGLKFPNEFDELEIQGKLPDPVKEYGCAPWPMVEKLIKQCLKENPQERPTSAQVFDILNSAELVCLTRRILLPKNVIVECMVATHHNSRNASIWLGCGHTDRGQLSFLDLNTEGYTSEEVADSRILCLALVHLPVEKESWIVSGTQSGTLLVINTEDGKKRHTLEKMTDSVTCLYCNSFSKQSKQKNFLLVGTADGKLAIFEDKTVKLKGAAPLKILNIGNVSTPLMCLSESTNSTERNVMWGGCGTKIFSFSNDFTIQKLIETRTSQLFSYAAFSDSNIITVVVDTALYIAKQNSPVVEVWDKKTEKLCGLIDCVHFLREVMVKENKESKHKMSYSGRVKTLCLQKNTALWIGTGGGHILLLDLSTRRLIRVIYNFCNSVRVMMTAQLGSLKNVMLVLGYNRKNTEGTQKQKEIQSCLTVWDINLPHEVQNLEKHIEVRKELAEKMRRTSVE

IC50 [nM]	SMILES
380	O=C1NCCc2c(-c3cc[nH]n3)sc(SC3CCCCC3)c21 [Example 45, 3-(cyclohexylsulfanyl)-1-(1H-pyrazol-3-yl)-6,7-dihydrothieno[3,4-c]pyridin-4(5)-one]
3100	O=C(O)CSc1sc(-c2cc[nH]n2)c2c1C(=O)NCC2 [Example 46, 1-{[4-oxo-1-(1H-pyrazol-3-yl)-4,5,6,7-tetrahydrothieno[3,4-c]pyridin-3-yl]sulfanyl}acetic acid]
1500	CSc1sc(-c2cc[nH]n2)c2c1C(=O)N[C@H](c1cccnc1)C2 [Example 19, (6S)-3-(methylsulfanyl)-6-(3-pyridyl)-1-(1H-pyrazol-3-yl)-6,7-dihydrothieno[3,4-c]pyridin-4(5)-one]
42	CCCSc1sc(-c2cc[nH]n2)c2c1C(=O)NCC2C (stereo in doubt) [Example 28, (7S)-7-methyl-3-(propylsulfanyl)-1-(1H-pyrazol-3-yl)-6,7-dihydrothieno[3,4-c]pyridin-4(5)-one]
7500	CSc1sc(-c2cc[nH]n2)c2c1C(=O)N(CCCCCc1ccccc1)CC2 [Example 74, 5-[(5-phenyl)pentyl]-3-(methylsulfanyl)-1-(1H-pyrazol-3-yl)-6,7-dihydrothieno[3,4-c]pyridin-4(5)-one]
52	CC1CNC(=O)c2c(SC3CCCC3)sc(-c3cc[nH]n3)c21 (stereo not drawn) [Example 36, 7-methyl-3-(cyclopentylsulfanyl)-1-(1H-pyrazol-3-yl)-6,7-dihydrothieno[3,4-c]pyridin-4(5)-one]
450	CSc1sc(-c2cc[nH]n2)c2c1C(=O)NC(C1CC1)C2 (stereo not drawn) [Example 13, 6-cyclopropyl-3-(methylsulfanyl)-1-(1H-pyrazol-3-yl)-6,7-dihydrothieno[3,4-c]pyridin-4(5)-one]
400	CSc1sc(-c2cc[nH]n2)c2c1C(=O)NC[C@H]2C [Example 22, (7S)-7-methyl-3-(methylsulfanyl)-1-(1H-pyrazol-3-yl)-6,7-dihydrothieno[3,4-c]pyridin-4(5)-one]
130	CCC(C)CSc1sc(-c2cc[nH]n2)c2c1C(=O)NCC2 (stereo not drawn) [Example 44, 3-[(2-methyl)butylsulfanyl]-1-(1H-pyrazol-3-yl)-6,7-dihydrothieno[3,4-c]pyridin-4(5)-one]
3500	CSc1sc(-c2cc[nH]n2)c2c1C(=O)N(CCCc1ccccc1)CC2 [Example 79]
290	O=C1NC(Cc2ccccc2)Cc2c(-c3cc[nH]n3)sc(NC3CCCC3)c21 (stereo not drawn) [Example 92, 3-(cyclopentylamino)-6-benzyl-1-(1H-pyrazol-3-yl)-6,7-dihydrothieno[3,4-c]pyridin-4(5H)-one]

The remaining lines, values behind:

SMILES	IC50 [nM]
O=C1NC(C(F)(F)F)Cc2c(-c3cc[nH]n3)sc(SC3CCCC3)c21 (stereo not drawn) [Example 35, 6-trifluoromethyl-3-(cyclopentylsulfanyl)-1-(1H-pyrazol-3-yl)-6,7-dihydrothieno[3,4-c]pyridin-4(5)-one]	160
CSc1sc(-c2cc[nH]n2)c2c1C(=O)NC(C(=O)OC(C)(C)C)C2 (stereo not drawn) [Example 20, tert-butyl-3-(methylsulfanyl)-4-oxo-1-(1H-pyrazol-3-yl)-4,5,6,7-tetrahydrothieno[3,4-c]pyridine-carboxylate]	7900
CC(C)CC1Cc2c(-c3cc[nH]n3)sc(SC3CCCC3)c2C(=O)N1 (stereo not drawn) [Example 34, 6-(2-methylpropyl)-3-(cyclopentylsulfanyl)-1-(1H-pyrazol-3-yl)-6,7-dihydrothieno[3,4-c]pyridin-4(5)-one]	110
O=C1NCCc2c(-c3cc[nH]n3)sc(SC3CCCC3)c21 [Example 30, 3-(Cyclopentylsulfanyl)-1-(1H-pyrazol-3-yl)-6,7-dihydrothieno[3,4-c]pyridin-4(5H)-one]	290
CCCCNCCSc1sc(-c2cc[nH]n2)c2c1C(=O)NCC2 [Example 37, 3-{[2-(butylamino)ethyl]sulfanyl}-1-(1H-pyrazol-3-yl)-6,7-dihydrothieno[3,4-c]pyridin-4(5)one]	5200
CSc1sc(-c2cc[nH]n2)c2c1C(=O)N(C(C)C)CC2 [Example 54, 3-(Methylsulfanyl)-5-(propan-2-yl)-1-(1H-pyrazol-3-yl)-6,7-dihydrothieno[3,4-c]pyridin-4(5H)-one]	3500
CNc1sc(-c2cc[nH]n2)c2c1C(=O)NC(Cc1ccccc1)C2 (stereo not drawn) [Example 93, 3-(methylamino)-6-benzyl-1-(1H-pyrazol-3-yl)-6,7-dihydrothieno[3,4-c]pyridin-4(5H)-one]	330
CSc1sc(-c2cc[nH]n2)c2c1C(=O)N(C)CC2 [Example 75, 5-methyl-3-(methylsulfanyl)-1-(1H-pyrazol-3-yl)-6,7-dihydrothieno[3,4-c]pyridin-4(5)-one]	3300
CSc1sc(-c2cc[nH]n2)c2c1C(=O)N(CCc1ccccc1)CC2 [Example 55, 3-(methylsulfanyl)-5-(2-phenethyl)-1-(1H-pyrazol-3-yl)-6,7-dihydrothieno[3,4-c]pyridin-4(5)-one]	1200
CSc1sc(-c2cc[nH]n2)c2c1C(=O)N(Cc1ccnc3ccccc13)CC2 [Example 56, 3-(methylsulfanyl)-1-(1H-pyrazol-3-yl)-5-(quinolin-4-ylmethyl)-6,7-dihydrothieno[3,4-c]pyridin-4(5)-one]	3700
CSc1sc(-c2cc[nH]n2)c2c1C(=O)N(c1ccccc1)CC2 [Example 81, 3-(Methylsulfanyl)-5-phenyl-1-(1H-pyrazol-3-yl)-6,7-dihydrothieno[3,4-c]pyridin-4(5H)-one]	2000
CSc1sc(-c2cc[nH]n2)c2c1C(=O)N(CCN1CCCCC1)CC2 [Example 80, 3-(methylsulfanyl)-5-[2-(piperidin-1-yl)ethyl]-1-(1H-pyrazol-3-yl)-6,7-dihydrothieno[3,4-c]pyridin-4(5)-one]	7800
O=C1NCCc2c(-c3cc[nH]n3)sc(Sc3ccccc3)c21 [Example 53, 3-phenylsulfanyl-1-(1H-pyrazol-3-yl)-6,7-dihydrothieno[3,4-c]pyridin-4(5)-one]	1500
C[C@@H]1Cc2c(-c3cc[nH]n3)sc(SCC(=O)O)c2C(=O)N1 [Example 52, (6R)-6-methyl-1-{[4-oxo-1-(1H-pyrazol-3-yl)-4,5,6,7-tetrahydrothieno[3,4-c]pyridin-3-yl]sulfanyl}acetic acid]	2700
O=C1NCCc2c(-c3cc[nH]n3)sc(SCC3CC3)c21 [Example 26, 3-[(cyclopropylmethyl)sulfanyl]-1-(1H-pyrazol-3-yl)-6,7-dihydrothieno[3,4-c]pyridin-4(5)-one]	300
COc1cccc(N2CCc3c(-c4cc[nH]n4)sc(SC)c3C2=O)c1 [Example 84, 5-(3-methoxyphenyl)-3-(methylsulfanyl)-1-(1H-pyrazol-3-yl)-6,7-dihydrothieno[3,4-c]pyridin-4(5)-one]	4700
CC1Cc2c(-c3cc[nH]n3)sc(NC3CCCC3)c2C(=O)N1 (stereo not drawn) [Example 87, 3-(cyclopentylamino)-6-methyl-1-(1H-pyrazol-3-yl)-6,7-dihydrothieno[3,4-c]pyridin-4(5H)-one]	320
CSc1sc(-c2cc[nH]n2)c2c1C(=O)N(c1ccccc1F)CC2 [Example 85, 5-(2-fluorophenyl)-3-(methylsulfanyl)-1-(1H-pyrazol-3-yl)-6,7-dihydrothieno[3,4-c]pyridin-4(5)-one]	3100
CCCSc1sc(-c2cc[nH]n2)c2c1C(=O)NCC2 [Example 43, 3-propylsulfanyl-1-(1H-pyrazol-3-yl)-6,7-dihydrothieno[3,4-c]pyridin-4(5)-one]	250
